Paper PMC5923384, “Transporter gene acquisition and innovation in the evolution of Microsporidia intracellular parasites” (Nature Communications, 2018)

Experiments:
[1] = target: T1, RaNTT1 (Rozella allomycis, UniProt A0A075B2H2); assay: competition with […]-ATP uptake in NTT-expressing E. coli; type: cell-based; conditions: 50,000x excess unlabelled competitor; PBS
T1 construct: gene O9G_001541; PCR-amplified gene, N-terminal His10 tag, pET16b, in E. coli Rosetta2 DE3 pLysS cells
T1 sequence (A0A075B2H2 1-597): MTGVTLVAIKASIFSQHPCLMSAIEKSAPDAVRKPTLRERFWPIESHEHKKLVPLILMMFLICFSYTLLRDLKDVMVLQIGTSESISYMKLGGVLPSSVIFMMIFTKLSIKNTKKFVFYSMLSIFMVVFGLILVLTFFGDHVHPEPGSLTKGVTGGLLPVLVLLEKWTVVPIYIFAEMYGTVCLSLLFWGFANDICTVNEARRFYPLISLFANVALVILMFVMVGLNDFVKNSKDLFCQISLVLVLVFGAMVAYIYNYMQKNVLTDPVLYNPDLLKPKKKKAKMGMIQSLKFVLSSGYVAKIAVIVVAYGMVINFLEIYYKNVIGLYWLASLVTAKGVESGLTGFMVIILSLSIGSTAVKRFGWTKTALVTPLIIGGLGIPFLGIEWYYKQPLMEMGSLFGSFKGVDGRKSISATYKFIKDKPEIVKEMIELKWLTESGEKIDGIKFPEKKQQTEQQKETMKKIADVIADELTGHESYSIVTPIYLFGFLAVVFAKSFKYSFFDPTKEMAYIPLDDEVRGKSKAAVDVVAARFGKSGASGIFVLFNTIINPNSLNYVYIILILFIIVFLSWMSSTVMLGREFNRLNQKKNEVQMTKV

[2] = test system: AncNTTRoz/Mic; conditions: read-out: apparent Km; PBS; 32P-labelled ATP plus unlabelled ATP; labelled compound
[3] = test system: AncNTTMic; conditions: read-out: apparent Km; PBS; 32P-labelled ATP plus unlabelled ATP; labelled compound
[4] = target: T2, EcNTT1 (Encephalitozoon cuniculi, UniProt Q8SRA2); assay: […]-nucleotide uptake by NTT-expressing E. coli, […] min; type: cell-based; conditions: PBS; labelled compound
T2 construct: gene NTT1; full-length, N-terminal His10 tag, pET16b, in E. coli Rosetta2 DE3 pLysS cells
T2 sequence (Q8SRA2 1-559): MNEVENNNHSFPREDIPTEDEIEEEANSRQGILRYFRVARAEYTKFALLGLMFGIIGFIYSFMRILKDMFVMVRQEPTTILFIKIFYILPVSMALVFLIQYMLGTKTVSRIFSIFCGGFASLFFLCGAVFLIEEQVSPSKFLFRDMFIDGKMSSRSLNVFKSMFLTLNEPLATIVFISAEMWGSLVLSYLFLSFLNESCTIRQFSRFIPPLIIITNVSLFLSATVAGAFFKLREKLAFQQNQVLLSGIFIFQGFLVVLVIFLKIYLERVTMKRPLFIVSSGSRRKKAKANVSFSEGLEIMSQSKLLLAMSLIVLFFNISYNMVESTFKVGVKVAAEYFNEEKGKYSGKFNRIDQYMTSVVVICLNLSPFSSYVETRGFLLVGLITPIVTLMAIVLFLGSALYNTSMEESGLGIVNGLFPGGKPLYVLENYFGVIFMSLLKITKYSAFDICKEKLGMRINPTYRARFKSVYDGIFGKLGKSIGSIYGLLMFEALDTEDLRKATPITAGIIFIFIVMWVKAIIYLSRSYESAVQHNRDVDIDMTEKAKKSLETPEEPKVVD

## Nc1ncnc2c1ncn2[C@@H]1O[C@H](COP(=O)(O)OP(=O)(O)O)[C@@H](O)[C@H]1O [ADP]
[1]
  residual [32P]-ATP uptake: transport by R. allomycis RaNTT1 was strongly reduced only by cold ATP and ADP

## Nc1ncnc2c1ncn2[C@@H]1O[C@H](COP(=O)(O)OP(=O)(O)OP(=O)(O)O)[C@@H](O)[C@H]1O [ATP]
[2]
  Km: 0.8 ± 0.15 µM
[3]
  Km: 1.9 ± 1.35 µM

## Nc1nc2c(ncn2[C@@H]2O[C@H](COP(=O)(O)OP(=O)(O)OP(=O)(O)O)[C@@H](O)[C@H]2O)c(=O)[nH]1 [GTP]
[4]
  [32P]-nucleotide uptake by NTT-expressing E. coli, 30 min: GTP is transported at high levels for all of the Microsporidia NTTs
